# Source: ChEMBL document CHEMBL5726258, “Pyrimidine PDE10 inhibitors” (2017)
# Molecular target: cAMP and cAMP-inhibited cGMP 3',5'-cyclic phosphodiesterase 10A (Homo sapiens, UniProt Q9Y233)
# Assay: Fluorescence Polarization Assay: The fluorescence polarization assay for cyclic nucleotide phosphodiesterases was performed using an IMAP® FP kit supplied by Molecular Devices, Sunnyvale, Calif. (product # R8139). IMAP® technology has been applied previously to phosphodiesterase assays (Huang, W., et al., J. Biomol Screen, 2002, 7: 215). Assays were performed at room temperature in 384-well microtiter plates with an incubation volume of 20.2 μL. Solutions of test compounds were prepared in DMSO and serially diluted with DMSO to yield 8 μL of each of 10 solutions differing by 3-fold in concentration, at 32 serial dilutions per plate.
# Chain of cAMP and cAMP-inhibited cGMP 3',5'-cyclic phosphodiesterase 10A (Q9Y233 whole entry): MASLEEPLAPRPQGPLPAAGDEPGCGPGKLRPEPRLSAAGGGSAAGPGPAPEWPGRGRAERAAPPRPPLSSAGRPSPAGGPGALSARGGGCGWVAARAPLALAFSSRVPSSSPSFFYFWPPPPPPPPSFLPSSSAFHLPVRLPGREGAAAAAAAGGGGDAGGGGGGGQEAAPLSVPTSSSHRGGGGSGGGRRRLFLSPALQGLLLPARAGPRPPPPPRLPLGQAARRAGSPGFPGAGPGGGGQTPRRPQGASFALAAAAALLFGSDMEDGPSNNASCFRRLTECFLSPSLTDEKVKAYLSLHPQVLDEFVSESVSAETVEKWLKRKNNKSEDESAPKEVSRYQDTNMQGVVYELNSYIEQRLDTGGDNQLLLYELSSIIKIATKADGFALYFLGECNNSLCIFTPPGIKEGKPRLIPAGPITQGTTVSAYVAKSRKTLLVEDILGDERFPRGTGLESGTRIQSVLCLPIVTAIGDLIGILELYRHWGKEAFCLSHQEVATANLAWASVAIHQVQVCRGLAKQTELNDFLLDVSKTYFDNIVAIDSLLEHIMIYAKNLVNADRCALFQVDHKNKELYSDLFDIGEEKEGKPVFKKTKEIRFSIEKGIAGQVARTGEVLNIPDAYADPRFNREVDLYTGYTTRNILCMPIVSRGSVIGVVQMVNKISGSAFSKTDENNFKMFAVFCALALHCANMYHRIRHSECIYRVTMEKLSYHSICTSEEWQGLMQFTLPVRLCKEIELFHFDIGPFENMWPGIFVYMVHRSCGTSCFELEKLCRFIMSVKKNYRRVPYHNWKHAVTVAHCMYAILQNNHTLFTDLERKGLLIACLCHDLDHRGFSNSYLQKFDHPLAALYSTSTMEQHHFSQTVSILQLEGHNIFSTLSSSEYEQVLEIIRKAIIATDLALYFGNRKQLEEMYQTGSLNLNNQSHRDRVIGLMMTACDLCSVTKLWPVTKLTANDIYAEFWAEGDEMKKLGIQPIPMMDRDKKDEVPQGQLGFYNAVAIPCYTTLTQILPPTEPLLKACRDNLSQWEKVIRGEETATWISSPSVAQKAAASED
row,SMILES,Ki [nM]
1,Cc1ccc([C@H]2C[C@@H]2COc2nc(C)ncc2-c2cccc(C(F)(F)F)c2)nc1,0.83
2,Cc1ncc(-c2cnc(C(C)(C)O)cc2C)c(OC[C@H]2C[C@@H]2c2ccc3ccccc3n2)n1,< 0.01
3,Cc1ccc([C@H]2C[C@@H]2COc2nc(C)ncc2-c2cncnc2)nc1,2.56

# Continued, values first:
row,Ki [nM],SMILES
1,1.3,COc1ccc([C@H]2C[C@@H]2COc2nc(C)ncc2-c2ccc(Cl)nc2)nc1
2,0.57,Cc1ncc(-c2ccc(C(C)(C)O)nc2)c(OC[C@H]2C[C@@H]2c2ccc(F)cn2)n1
